# Experimental data: US11584713B2, “25-hydroxycholecalciferol monohydrate crystal, preparation method therefor and microemulsion using same” (SHANDONG HAINENG BIOENGINEERING CO., LTD., priority 2018, dated 2023)
# Columns and labels:
# [1] = Stability test, left open at 25° C., content of 25-hydroxycholecalciferol by HPLC; assay type: physicochemical; conditions: for Content of 25-hydroxycholecalciferol: left open at 25° C.
# Experimental: 6. Stability Test the 25-hydroxycholecalciferol monohydrate crystal prepared in the present embodiment was left open at 25° C., and a content of 25-hydroxycholecalciferol contained therein was tested after one month, three months and six months respectively, and meanwhile, 25-hydroxycholecalciferol was used as a control example, and the results were shown in Table 2. The content of 25-hydroxycholecalciferol was measured by the following method: taking a sample to prepare a solution of about 10 μg/mL, injecting 20 μL for a HPLC analysis, and calculating the content thereof according to an external standard method. Test conditions of the HPLC were as follows: chromatographic column: C18 column; internal diameter: 4.6 mm; length: 150 mm, particle size: 5 μm; detection wavelength: 265 nm; temperature of column: 30° C.; flow rate: 1.5 mL/min (which may be adjusted according to desired retention time and a degree of separation of 25-hydroxycholecalciferol and a 25-hydroxycholecalciferol precursor); injection volume: 20 uL; and recording time: 2 times the retention time of main peak.
# [2] = cited from earlier work
Loss of 25-hydroxycholecalciferol (in words) ([1]; after six months of being left open at 25° C.),Content of 25-hydroxycholecalciferol ([1]; 0 day) [%],Content of 25-hydroxycholecalciferol ([1]; one month) [%],Content of 25-hydroxycholecalciferol ([1]; six months) [%],Content of 25-hydroxycholecalciferol ([1]; three months) [%],Structure (SMILES),solubility in diethyl ether ([2]; diethyl ether),solubility in dimethyl sulfoxide ([2]; dimethyl sulfoxide),solubility in ethanol ([2]; ethanol),solubility in methanol ([2]; methanol),solubility in water ([2]; water)
almost no loss,99.60,99.05,96.59,98.46,C=C1CC[C@H](O)C/C1=C/C=C1\CCC[C@]2(C)[C@@H]([C@H](C)CCCC(C)(C)O)CC[C@@H]12 [25-hydroxycholecalciferol monohydrate],,,,,
,99.23,65.03,29.61,47.65,C=C1CC[C@H](O)C/C1=C/C=C1\CCC[C@]2(C)[C@@H]([C@H](C)CCCC(C)(C)O)CC[C@@H]12 [25-hydroxycholecalciferol],slightly soluble,easily soluble,easily soluble,easily soluble,almost insoluble
